“Also recorded” adds a separate entry of the source.
Tests used:
SMN complex = test: high-throughput 384-well SMN complex activity / snRNP assembly assay; assay type: biochemical; details: test compound added to labeled RNA, cell extract and ATP; identified inhibitors, FIG. 10
From the text: The present assay comprises labeling an RNA, in the case of an assay to measure Sm core activity, the RNA is snRNA. The RNA is preferably labeled with a non-radioactive tag, such as biotin-UTP. […] The labeled RNA binds the plate through the interaction between biotin and avidin/streptavidin. The RNA binding proteins present in the cell extract bind their RNA target at sequence specific sites, forming a ribonucleoprotein complex in the multi-well plate substrate. The ribonucleoprotein complex is captured on the plate and the plate is washed one or more times. An anti RNA binding protein antibody is then added to the plate. The plate is again washed one or more times and an labeled antibody, such as an HRP labeled antibody, is added to the multi-well plate substrate. The plate is washed one or more times, and HRP substrate is added. Chemiluminescence generated by HRP is detected using a plate reader.
Five microliters of test compound dissolved in DMSO were added to each well of the plate. Five microliters of HeLa whole cell extract containing 8 μg of total protein was added to each well. The plate was centrifuged (5 minutes at 1000 rpm), and the assembly reactions were allowed to proceed for 1 hour at room temperature. The reaction mixtures were aspirated and 20 μl/well of Y12 antibody (diluted 1:1000 in RSB-500 (10 mM Tris/HCl, pH 7.5, 500 mM NaCl, 2.5 mM MgCl2, and 0.1% Nonidet P-40 (NP-40)) containing 1 mg/ml BSA, 2 mg/ml heparin, and 1× Complete EDTA-free Protease Inhibitor Cocktail) was added. The plate was centrifuged for 5 minutes at 1000 rpm, and incubated for 1 hour at room temperature.
The plate was washed 10× with RSB-500 using an automated plate washer, followed by the addition of 20 ml/well of horseradish peroxidase-conjugated AffiniPure goat anti-mouse IgG+IgM (diluted 1:10,000 in RSB-500 containing 1 mg/ml BSA) for 1 hour at room temperature. The plate was centrifuged for 5 minutes at 1000 rpm. The plate was then washed 10× using an automated washer and 20 μl of SuperSignal ELISA Femto Maximum Sensitivity enhanced chemiluminescence substrate working solution was added into each well. The plate was then centrifuged for 5 minutes at 1000 rpm. The luminescence signal was measured using a plate Reader.
The assay of the present invention can also be used to determine the dose response activity of a compound on an RNA binding protein-RNA complex.

[1] = system: Sm core assembly on U4 snRNA in HeLa cytoplasmic extracts; test: magnetic beads assay for in vitro assembly of snRNPs (Sm core assembly); assay type: biochemical; details: cell extracts, AMP-PNP in place of ATP, FIG. 3A
Experimental: For quantitative in vitro assembly assays on magnetic beads, cytoplasmic extracts were prepared and used for assembly on biotin-labeled snRNAs using the standard reconstitution conditions in 96-well plates. Following the reactions, Y12 antibodies immobilized onto the magnetizable Dynabeads Protein A (Dynal Biotech ASA, Oslo, Norway) in 100 μl of RSB-500 buffer (10 mM Tris/HCl pH 7.5, 500 mM NaCl, 2.5 mM MgCl2) containing 2 mg/ml heparin, 0.1% NP-40, and 0.2 U/μl RNasin Plus RNase inhibitor (Promega, Madison, Wis.) were added to each well. Immunoprecipitations in the 96-well plates were carried out with gentle mixing at 750 rpm in a Thermomixer (Eppendorf, Germany) at 30° C. for 1 hour. The plates were subsequently transferred to a Kingfisher 96 magnetic particle processor (Thermo Labsystems, Vantaa, Finland) for automatic washing of the Dynabeads in each well with wash buffer (RSB-500, 0.1% NP-40) 5 times. […] The plates were transferred to a Wallac Victor2 multi-label plate reader (Perkin-Elmer, Wellesley, Mass.) for luminescence measurements at 495 nm. The resulting data were analyzed with Microsoft Excel.
To facilitate the study of the snRNP assembly process, an assay that allows a quantitative measurement of Sm core formation was developed (FIG. 2). […] This step also serves to amplify the signals for the luminescence measurement of the HRP activity on an automatic plate reader. […]

`O=C1C(SCCO)=C(SCCO)C(=O)c2ccccc21` [2,3-bis[(2-Hydroxyehtyl)thio]-1,4-naphthoquinone] was tested, and the “formation of an RNA binding protein-RNA complex” value (SMN complex) was “inhibits the formation of an RNA binding protein-RNA complex”.

In the case of `Nc1ncnc2c1ncn2[C@@H]1O[C@H](COP(=O)(O)OP(=O)(O)NP(=O)(O)O)[C@@H](O)[C@H]1O` [AMP-PNP, adenosine 5′-(β,γ-imido)triphosphate], the “Sm core assembly (snRNP complex formation)” value [1] is reported as “does not permit the formation; also recorded: does not occur”.

In the case of `CC1(C)CCC2=C(O1)c1ccccc1C(=O)C2=O` [beta-lapachone], the “formation of an RNA binding protein-RNA complex” value (SMN complex) is reported as “inhibits the formation of an RNA binding protein-RNA complex”.

With `Oc1c(Cl)cc(Cl)cc1Sc1cc(Cl)cc(Cl)c1O` [bithionol] the “formation of an RNA binding protein-RNA complex” value (SMN complex) was “inhibits the formation of an RNA binding protein-RNA complex”.

With `Oc1c(Cl)cc(Cl)c(Cl)c1Cc1c(O)c(Cl)cc(Cl)c1Cl` [hexachlorophene] the “formation of an RNA binding protein-RNA complex” value (SMN complex) was “inhibits the formation of an RNA binding protein-RNA complex”.

— US8822168B2, “Assays for detecting small nuclear ribonucleoprotein particle assembly and survival of motor neurons activity” (The Trustees of the University of Pennsylvania, priority 2005, dated 2014)
